Where two headings read alike, the source gives them in different places.
Key:
[1] = system: HCV replicon RNA replication in Huh-7 luc/neo (Huh-Luc) cells; experiment: HCV replicon assay (stable replicon cell reporter assay, luciferase read-out); type: cell-based, HCV type 1b
Method in brief: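 Three-day compound exposure used Huh-Luc cells, which harbour an autonomously replicating genotype 1b NS3-NS5B replicon expressing luciferase and neo^R. Luciferase signal served as the replication read-out, and dose-response curves came from several concentrations per compound.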

[2] = target: T1, HCV NS5B polymerase (His-tagged, C-terminal 21 amino acid deleted NS5B, HC-J4) (Hepatitis C virus genotype 1b, UniProt O92972); experiment: NS5b polymerase assay (biochemical RdRp assay, 3H-GTP incorporation, SPA beads); design: species or system HCV genotype 1b; details: 3H-GTP incorporation, 2 h at 25° C.
T1 construct: The cDNA encoding NS5B amino acid 1-570 (HC-J4, genotype 1b); His tag (His6, from pET-21b) (C); made in house; host or cells: E. coli BL21 (DE3)
T1 sequence (O92972 2417-3000, looked up, stated change not applied): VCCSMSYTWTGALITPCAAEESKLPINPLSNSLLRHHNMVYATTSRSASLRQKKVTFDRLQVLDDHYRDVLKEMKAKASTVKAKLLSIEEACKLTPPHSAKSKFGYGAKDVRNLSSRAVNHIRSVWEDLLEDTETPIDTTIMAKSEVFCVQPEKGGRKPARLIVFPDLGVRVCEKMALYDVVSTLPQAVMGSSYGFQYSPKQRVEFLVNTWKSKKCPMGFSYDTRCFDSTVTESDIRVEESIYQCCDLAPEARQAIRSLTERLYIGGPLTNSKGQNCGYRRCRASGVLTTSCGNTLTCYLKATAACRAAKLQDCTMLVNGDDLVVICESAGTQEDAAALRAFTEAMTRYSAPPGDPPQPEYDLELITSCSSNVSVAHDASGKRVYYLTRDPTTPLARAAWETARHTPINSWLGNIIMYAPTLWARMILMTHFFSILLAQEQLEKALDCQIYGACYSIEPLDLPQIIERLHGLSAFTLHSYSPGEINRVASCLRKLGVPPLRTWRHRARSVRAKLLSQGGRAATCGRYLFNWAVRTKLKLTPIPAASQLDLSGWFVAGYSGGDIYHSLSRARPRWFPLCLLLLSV
Method in brief: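 3H-GTP incorporation into newly made RNA was captured on SPA beads added in EDTA after 2 h at 25 °C. Compounds in DMSO met preformed enzyme–template complex (200 nM truncated His-NS5B, HC-J4 1b; biotin-oligo(rG13)/poly(rC)) for 15 min at RT, then 600 nM GTP, 5 mM MgCl2, Tris pH 7.5 started polymerization.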

[3] = Huh-Luc cells, three days incubation, luciferase activity, read-out: Replicon Assay EC50
[4] = 200 nM enzyme, read-out: NS5B Polymerase Assay IC50
[5] = Hepatitis C virus, Huh-7, 72 h, read-out: Replicon Assay EC50, Huh-Luc cells, three days incubation, luciferase activity
[6] = NS5B Polymerase Assay IC50, 200 nM enzyme

| SMILES | EC50 [1, 3] [µM] | IC50 [2, 4] [µM] | EC50 [1, 5] [µM] | IC50 [2, 6] [µM] |
| --- | --- | --- | --- | --- |
| CCC(=O)N1c2ccccc2NC2=C(C(=O)CC(c3ccc(OC)cc3)C2)C1c1ccc(Cl)cc1 (centres unmarked) [compound 227] | 17 | > 33.3 |  |  |
| CCC(=O)N1c2ccccc2NC2=C(C(=O)CC(c3ccc(OC)c(OC)c3)C2)C1c1ccc(Cl)cc1 (centres unmarked) [compound 228] | 17.2 | > 33.3 |  |  |
| CC(=O)N1c2ccccc2NC2=C(C(=O)CC(c3ccccc3Cl)C2)C1c1ccc(C)cc1 (centres unmarked) [compound 229] | 10.9 | > 42.7 |  |  |
| Cc1ccc(C2CC(=O)C3=C(C2)Nc2ccccc2N(C(=O)C(F)(F)F)C3c2cccc(Cl)c2)cc1 (centres unmarked) [compound 230] | 19.6 | > 33.3 |  |  |
| CCCCCC(=O)N1c2ccccc2NC2=C(C(=O)CC(c3ccc(OC)cc3)C2)C1c1ccc(Cl)cc1 (centres unmarked) [compound 232] | 22.6 | > 33.3 |  |  |
| CC(=O)N1c2ccccc2NC2=C(C(=O)CC(c3cccc([N+](=O)[O-])c3)C2)C1c1ccccc1 (centres unmarked) [compound 234] | 3.89 | > 36.2 |  |  |
| CC(=O)N1c2ccccc2NC2=C(C(=O)CC(c3ccccc3F)C2)C1c1ccccc1 (centres unmarked) [compound 236] | 11.8 | > 42.7 |  |  |
| CC1(C)CC(=O)C2=C(C1)Nc1ccccc1N(C(=O)Cc1ccccc1)C2c1cccs1 (centres unmarked) [compound 240] |  |  | 7.73 | > 42.7 |
| CCC(=O)N1c2ccccc2NC2=C(C(=O)CC(C)(C)C2)C1c1ccc(-c2ccccc2[N+](=O)[O-])o1 (centres unmarked) [compound 241] |  |  | 17.1 | > 42.7 |
| CC(C)CC(=O)N1c2ccccc2NC2=C(C(=O)CC(C)(C)C2)C1c1ccc2c(c1)OCO2 (centres unmarked) [compound 242] |  |  | 1.77 | > 42.7 |
| CC(C)C(=O)N1c2ccccc2NC2=C(C(=O)CC(C)(C)C2)C1c1cccs1 (centres unmarked) [compound 243] |  |  | 25.5 | > 33.3 |
| CC1(C)CC(=O)C2=C(C1)Nc1ccccc1N(C(=O)Cc1ccc(Cl)cc1)C2c1cccs1 (centres unmarked) [compound 245] |  |  | 3.51 | > 42.6 |
| CC(=O)N1c2ccccc2NC2=C(C(=O)CC(C)(C)C2)C1CC1CC=C(C)C1(C)C (centres unmarked) [compound 246] |  |  | 1.88 | > 42.7 |
| CC1(C)CC(=O)C2=C(C1)Nc1ccccc1N(C(=O)Cc1ccc(Cl)cc1)C2c1cccnc1 (centres unmarked) [compound 247] |  |  | 17.3 | > 33.3 |
| CC(C)CC(=O)N1c2ccccc2NC2=C(C(=O)CC(C)(C)C2)C1c1cccs1 (centres unmarked) [compound 248] |  |  | 7.24 | > 42.6 |
| CCC(=O)N1c2ccccc2NC2=C(C(=O)CC(C)(C)C2)C1c1ccc(Br)s1 (centres unmarked) [compound 249] |  |  | 3.66 | > 42.7 |
| CC(=O)N1c2ccccc2NC2=C(C(=O)CC(C)(C)C2)C1c1ccc(-c2cccc([N+](=O)[O-])c2)o1 (centres unmarked) [compound 250] |  |  | 7.95 | > 42.6 |
| CC1(C)CC(=O)C2=C(C1)Nc1ccccc1N(C(=O)Cc1ccc(F)cc1)C2c1cccs1 (centres unmarked) [compound 251] |  |  | 9.88 | > 42.6 |
| CC1(C)CC(=O)C2=C(C1)Nc1ccccc1N(C(=O)C1CC1)C2c1cccs1 (centres unmarked) [compound 252] |  |  | 4.76 | > 42.7 |
| CC1(C)CC(=O)C2=C(C1)Nc1ccccc1N(C(=O)Cc1ccc(Cl)cc1)C2c1ccco1 (centres unmarked) [compound 253] |  |  | 8.7 | > 42.7 |
| CC1(C)CC(=O)C2=C(C1)Nc1ccccc1N(C(=O)c1ccc(Br)cc1)C2c1ccco1 (centres unmarked) [compound 254] |  |  | 15.3 | > 42.6 |
| CCCCC(=O)N1c2ccccc2NC2=C(C(=O)CC(C)(C)C2)C1c1ccc(-c2cccc([N+](=O)[O-])c2)o1 (centres unmarked) [compound 255] |  |  | 21.8 | > 42.7 |
| CC1(C)CC(=O)C2=C(C1)Nc1ccccc1N(C(=O)C(F)(F)F)C2c1ccc(-c2ccc([N+](=O)[O-])cc2)o1 (centres unmarked) [compound 257] |  |  | 22.4 | > 42.7 |
| CC(=O)N1c2ccccc2NC2=C(C(=O)CC(C)(C)C2)C1c1cccnc1 (centres unmarked) [compound 258] |  |  | > 32 | > 42.7 |
| CC(C)C(=O)N1c2ccccc2NC2=C(C(=O)CC(C)(C)C2)C1c1cccnc1 (centres unmarked) [compound 259] |  |  | > 33 | 29.5 |
| Cn1cccc1C1C2=C(CC(C)(C)CC2=O)Nc2ccccc2N1C(=O)C(F)(F)F (centres unmarked) [compound 260] |  |  | 22.5 | > 42.7 |
| CCC(=O)N1c2ccc(C(=O)c3ccccc3)cc2NC2=C(C(=O)CC(C)(C)C2)C1c1ccco1 (centres unmarked) [compound 261] | 9.3 | > 42.7 |  |  |
| CC(C)C(=O)N1c2ccccc2NC2=C(C(=O)CC(C)(C)C2)C1c1ccc(Br)s1 (centres unmarked) [compound 262] |  |  | 5.54 | > 42.7 |

| SMILES | EC50 [1, 3] [µM] | IC50 [2, 4] [µM] | EC50 [1, 5] [µM] | IC50 [2, 6] [µM] |
| --- | --- | --- | --- | --- |
| CCCCC(=O)N1c2ccccc2NC2=C(C(=O)CC(C)(C)C2)C1c1cccs1 (centres unmarked) [compound 263] |  |  | 10.4 | > 42.7 |
| CC1(C)CC(=O)C2=C(C1)Nc1ccccc1N(C(=O)c1ccccc1)C2/C=C/c1ccccc1 (centres unmarked) [compound 264] | 8.87 | > 42.7 |  |  |
| CCCCC(=O)N1c2ccccc2NC2=C(C(=O)CC(C)(C)C2)C1c1ccc2c(c1)OCO2 (centres unmarked) [compound 265] |  |  | 11.3 | > 42.7 |
| CC1(C)CC(=O)C2=C(C1)Nc1ccccc1N(C(=O)C(F)(F)F)C2c1ccc2c(c1)OCO2 (centres unmarked) [compound 266] |  |  | 24 | > 42.7 |
| CC1(C)CC(=O)C2=C(C1)Nc1ccccc1N(C(=O)C(F)(F)F)C2c1cccs1 (centres unmarked) [compound 267] |  |  | 9.39 | > 42.7 |
| CC1(C)CC(=O)C2=C(C1)Nc1ccccc1N(C(=O)Cc1ccccc1)C2c1cc2c(cc1Br)OCO2 (centres unmarked) [compound 268] |  |  | 9.04 | > 42.7 |
| CC1(C)CC(=O)C2=C(C1)Nc1ccccc1N(C(=O)c1ccccc1)C2c1cccs1 (centres unmarked) [compound 269] |  |  | 19.6 | > 33.3 |
| CC(C)CC(=O)N1c2ccccc2NC2=C(C(=O)CC(C)(C)C2)C1c1cccnc1 (centres unmarked) [compound 270] |  |  | 25.5 | > 33.3 |
| Cc1ccc(C2C3=C(CC(C)(C)CC3=O)Nc3ccccc3N2C(=O)Cc2ccccc2)o1 (centres unmarked) [compound 271] |  |  | 22.9 | > 33.3 |
| CC1(C)CC(=O)C2=C(C1)Nc1ccccc1N(C(=O)Cc1ccccc1)C2c1ccc2c(c1)OCO2 (centres unmarked) [compound 275] |  |  | 10.1 | > 42.7 |
| CC1(C)CC(=O)C2=C(C1)Nc1ccccc1N(C(=O)C(F)(F)F)C2c1ccco1 (centres unmarked) [compound 276] |  |  | > 32 | > 42.7 |
| CC(=O)N1c2ccccc2NC2=C(C(=O)CC(C)(C)C2)C1c1cc2c(cc1Br)OCO2 (centres unmarked) [compound 277] |  |  | 13.6 | > 42.7 |
| CC1(C)CC(=O)C2=C(C1)Nc1ccccc1N(C(=O)C(F)(F)F)C2c1ccc(-c2ccc(Br)cc2)o1 (centres unmarked) [compound 278] |  |  | 13.3 | > 42.7 |
| CC(=O)N1c2ccccc2NC2=C(C(=O)CC(C)(C)C2)C1c1ccc(-c2ccc([N+](=O)[O-])cc2Cl)o1 (centres unmarked) [compound 279] |  |  | 9.27 | > 42.7 |
| CC(=O)N1c2ccccc2NC2=C(C(=O)CC(C)(C)C2)C1c1ccc(-c2cccc(C(=O)O)c2)o1 (centres unmarked) [compound 280] |  |  | > 32 | > 42.7 |
| CC(=O)N1c2ccccc2NC2=C(C(=O)CC(C)(C)C2)C1c1ccccn1 (centres unmarked) [compound 281] |  |  | > 32 | > 42.7 |
| CC(=O)N1c2ccccc2NC2=C(C(=O)CC(C)(C)C2)C1c1ccc(Br)s1 (centres unmarked) [compound 282] |  |  | 17 | > 42.7 |
| CC(=O)N1c2ccccc2NC2=C(C(=O)CC(C)(C)C2)C1c1ccc(C)o1 (centres unmarked) [compound 283] |  |  | > 32 | > 42.7 |
| CC(=O)N1c2ccccc2NC2=C(C(=O)CC(C)(C)C2)C1c1ccc2c(c1)OCO2 (centres unmarked) [compound 284] |  |  | 30.9 | > 42.7 |
| O=C1CC(c2ccco2)CC2=C1C(c1cccc([N+](=O)[O-])c1)N(C(=O)c1ccccc1)c1ccccc1N2 (centres unmarked) [compound 286] | 19.2 | > 42.7 |  |  |
| COc1ccc(C2C3=C(CC(c4cccs4)CC3=O)Nc3ccccc3N2C(=O)Nc2ccc(Cl)c(Cl)c2)cc1 (centres unmarked) [compound 287] |  |  | 5.01 | > 33.3 |
| CCC(=O)N1c2ccccc2NC2=C(C(=O)CC(c3ccco3)C2)C1c1cccc([N+](=O)[O-])c1 (centres unmarked) [compound 288] | 25 | > 42.7 |  |  |
| CCCCCC(=O)N1c2ccccc2NC2=C(C(=O)CC(c3ccco3)C2)C1c1ccc(Cl)cc1 (centres unmarked) [compound 289] |  |  | 15.4 | > 33.3 |
| CC(=O)N1c2ccccc2NC2=C(C(=O)CCC2)C1c1ccc(Cl)cc1Cl (centres unmarked) [compound 291, 10-Acetyl-11-(2,4-dichlorophenyl)-2,3,4,5,10,11-hexahydro-1H-dibenzo[b,e][1,4]-diazepin-1-one] |  |  | > 32 | > 42.7 |
| COc1ccc(C2C3=C(CC(c4ccco4)CC3=O)Nc3ccccc3N2C(C)=O)cc1OC (centres unmarked) [compound 293] |  |  | > 32 | > 42.7 |
| CC(=O)N1c2ccccc2NC2=C(C(=O)CC(C)C2)C1c1ccc(Cl)cc1Cl (centres unmarked) [compound 294, 10-acetyl-11-(2,4-dichlorophenyl)-3-methyl-2,3,4,5,10,11-hexahydro-1H-dibenzo[b,e][1,4]diazepin-1-one] |  |  | 42 | 10.4 |
| CCN(CC)c1ccc(C2CC(=O)C3=C(C2)Nc2ccccc2N(C(=O)c2ccccc2)C3c2ccco2)cc1 (centres unmarked) [compound 295] |  |  | 21.6 | > 42.7 |

From US20090221559A1 (priority 2005, published 2009)
